Where “and” joins values, the source holds several entries; their conditions need not be identical. Equal entries are not always repeated. Inconclusive results and toxic doses are left out.
Test system: L1210 leukemia ip in BDF1 mice, survival T/C
Assay: NCI In Vivo Anticancer Drug Screen. Data for tumor model L1210 Leukemia (intraperitoneal) in B6D2F1 (BDF1) mice
Conditions: endpoint: mean survival time, higher = longer survival
Outline: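 Tumor was transplanted into mice, which were then dosed with test compound or vehicle alone. Survival was recorded for each group, and the treated figure was expressed relative to the control figure.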

[1] = dose: 100.0 mg/kg/injection, schedule: Q01DX001 (ip), vehicle: saline
[2] = dose: 200.0 mg/kg/injection, schedule: Q01DX001 (ip), vehicle: saline
[3] = dose: 400.0 mg/kg/injection, schedule: Q01DX001 (ip), vehicle: saline
[4] = dose: 100.0 mg/kg/injection, schedule: Q04DX003 (ip), vehicle: saline with Tween-80
[5] = dose: 200.0 mg/kg/injection, schedule: Q04DX003 (ip), vehicle: saline with Tween-80
[6] = dose: 400.0 mg/kg/injection, schedule: Q04DX003 (ip), vehicle: saline with Tween-80
[7] = dose: 100.0 mg/kg/injection, schedule: Q04DX002 (ip), vehicle: saline
[8] = dose: 100.0 mg/kg/injection, schedule: Q01DX009 (ip), vehicle: saline
[9] = dose: 100.0 mg/kg/injection, schedule: Q04DX003 (ip), vehicle: saline
[10] = dose: 200.0 mg/kg/injection, schedule: Q01DX009 (ip), vehicle: saline
[11] = dose: 200.0 mg/kg/injection, schedule: Q04DX003 (ip), vehicle: saline
[12] = dose: 400.0 mg/kg/injection, schedule: Q04DX003 (ip), vehicle: saline

For `C=C1CC(CC)C(C)OC1=O` (configuration not stated), the T/C [1] was 102 % of control, the T/C [2] was 102 % of control and the T/C [3] was 98 % of control.
With `C=C(C)COc1c(CCC)cc(C)cc1NC(C)=O` the T/C [4] was 106 % of control, the T/C [5] was 97 % of control and the T/C [6] was 104 % of control.
`COc1ccc(CC2=NNC(Cc3ccc(OC)c(OC)c3)=NN2)cc1OC` was tested, and the T/C [4] was 91 % of control, the T/C [5] was 91 % of control and the T/C [6] was 93 % of control.
With `Cn1nnc(CCO)n1` the T/C [1] was 95 % of control, the T/C [2] was 95 % of control and the T/C [3] was 100 % of control.
`O=C(Nc1ccc(C2=NCCN2)cc1)c1ccc([N+](=O)[O-])c(C(=O)Nc2ccc(C3=NCCN3)cc2)c1` was tested, and the T/C (dose: 10.0 mg/kg/injection, schedule: Q01DX Z (ip), vehicle: carboxymethylcellulose (CMC)) was 108 % of control and the T/C (dose: 19.0 mg/kg/injection, schedule: Q01DX Z (ip), vehicle: carboxymethylcellulose (CMC)) was 108 % of control.
With `COc1ccc2c(c1)Cc1cc(NC(=O)N(CCCl)N=O)ccc1-2` the T/C (dose: 10.0 mg/kg/injection, schedule: Q01DX009 (ip), vehicle: saline) was 151 % of control, the T/C (dose: 20.0 mg/kg/injection, schedule: Q01DX009 (ip), vehicle: saline) was 175 % of control and the T/C (dose: 25.0 mg/kg/injection, schedule: Q01DX001 (ip), vehicle: other) was 122 % of control. The T/C (dose: 33.0 mg/kg/injection, schedule: Q01DX009 (ip), vehicle: carboxymethylcellulose (CMC)) was 188 % of control, the T/C (dose: 45.0 mg/kg/injection, schedule: Q01DX001 (ip), vehicle: other) was 123 % of control and the T/C (dose: 50.0 mg/kg/injection, schedule: Q01DX009 (ip), vehicle: carboxymethylcellulose (CMC)) was 163 % of control. For the same compound, the T/C (dose: 80.0 mg/kg/injection, schedule: Q01DX009 (ip), vehicle: other) was 123 % of control, the T/C (dose: 177.0 mg/kg/injection, schedule: Q01DX001 (ip), vehicle: carboxymethylcellulose (CMC)) was 182 % of control and the T/C (dose: 177.0 mg/kg/injection, schedule: Q01DX001 (ip), vehicle: other) was 154 % of control. The T/C (dose: 177.0 mg/kg/injection, schedule: Q01DX009 (ip), vehicle: carboxymethylcellulose (CMC)) was 107 % of control, the T/C (dose: 266.0 mg/kg/injection, schedule: Q01DX001 (ip), vehicle: carboxymethylcellulose (CMC)) was 178 % of control and the T/C (dose: 266.0 mg/kg/injection, schedule: Q01DX001 (ip), vehicle: other) was 154 % of control. For the same compound, the T/C (dose: 266.0 mg/kg/injection, schedule: Q01DX009 (ip), vehicle: carboxymethylcellulose (CMC)) was 97 % of control, the T/C (dose: 400.0 mg/kg/injection, schedule: Q01DX001 (ip), vehicle: carboxymethylcellulose (CMC)) was 193 % of control and the T/C (dose: 400.0 mg/kg/injection, schedule: Q01DX009 (ip), vehicle: carboxymethylcellulose (CMC)) was 96 % of control. The T/C (dose: 600.0 mg/kg/injection, schedule: Q01DX001 (ip), vehicle: carboxymethylcellulose (CMC)) was 186 % of control.
`CNCC(O)c1cc(OC)c(OC)c(OC)c1` (configuration not stated) was tested, and the T/C [7] was 102 % of control, the T/C (dose: 200.0 mg/kg/injection, schedule: Q04DX002 (ip), vehicle: saline) was 93 % of control and the T/C (dose: 400.0 mg/kg/injection, schedule: Q04DX002 (ip), vehicle: saline) was 96 % of control.
`CCCCCCCCOP(=O)(OCCCCCCCC)c1ccccc1` was tested, and the T/C (dose: 10.0 mg/kg/injection, schedule: Q01DX001 (ip), vehicle: acetone) was 91 % of control, the T/C (dose: 10.0 mg/kg/injection, schedule: Q04DX003 (ip), vehicle: acetone) was 97 % of control and the T/C (dose: 12.5 mg/kg/injection, schedule: Q01DX009 (ip), vehicle: saline) was 94 % of control. The T/C (dose: 20.0 mg/kg/injection, schedule: Q01DX001 (ip), vehicle: acetone) was 91 % of control, the T/C (dose: 20.0 mg/kg/injection, schedule: Q04DX003 (ip), vehicle: acetone) was 92 % of control and the T/C (dose: 25.0 mg/kg/injection, schedule: Q01DX009 (ip), vehicle: saline) was 94 % of control. For the same compound, the T/C (dose: 40.0 mg/kg/injection, schedule: Q01DX001 (ip), vehicle: acetone) was 86 % of control, the T/C (dose: 40.0 mg/kg/injection, schedule: Q04DX003 (ip), vehicle: acetone) was 97 % of control and the T/C (dose: 50.0 mg/kg/injection, schedule: Q01DX009 (ip), vehicle: saline) was 94 % of control. For the same compound, the T/C (dose: 75.0 mg/kg/injection, schedule: Q01DX009 (ip), vehicle: saline) was 112 % of control, the T/C (dose: 115.0 mg/kg/injection, schedule: Q01DX009 (ip), vehicle: saline) was 106 % of control and the T/C (dose: 170.0 mg/kg/injection, schedule: Q01DX009 (ip), vehicle: saline) was 98 % of control.
`O=c1cc(NCc2ccccc2Cl)[nH]c(=O)[nH]1` was tested, and the T/C (dose: 100.0 mg/kg/injection, schedule: Q01DX001 (ip), vehicle: gum acacia) was 93 % of control, the T/C (dose: 200.0 mg/kg/injection, schedule: Q01DX001 (ip), vehicle: gum acacia) was 95 % of control and the T/C (dose: 400.0 mg/kg/injection, schedule: Q01DX001 (ip), vehicle: gum acacia) was 101 % of control.
In the case of `CNc1ccc(S(=O)(=O)c2ccc(NC)c([N+](=O)[O-])c2)cc1[N+](=O)[O-]`, the T/C (dose: 100.0 mg/kg/injection, schedule: Q01DX005 (ip), vehicle: gum acacia) is reported as 93 % of control, the T/C (dose: 100.0 mg/kg/injection, schedule: Q01DX009 (ip), vehicle: gum acacia) is reported as 94 % of control and the T/C (dose: 200.0 mg/kg/injection, schedule: Q01DX005 (ip), vehicle: gum acacia) is reported as 93 % of control. For the same compound, the T/C (dose: 200.0 mg/kg/injection, schedule: Q01DX009 (ip), vehicle: gum acacia) was 87 % of control, the T/C (dose: 400.0 mg/kg/injection, schedule: Q01DX005 (ip), vehicle: gum acacia) was 96 % of control and the T/C (dose: 400.0 mg/kg/injection, schedule: Q01DX009 (ip), vehicle: gum acacia) was 90 % of control.
`COc1cc(OC)c(OC)cc1CNC1CCCCCCC1` was tested, and the T/C (dose: 25.0 mg/kg/injection, schedule: Q04DX002 (ip), vehicle: saline) was 102 % of control, the T/C (dose: 50.0 mg/kg/injection, schedule: Q04DX002 (ip), vehicle: saline) was 91 % of control and the T/C [7] was 105 % of control and 115 % of control.
`O=[N+]([O-])c1ccc(N=Nc2ccccc2)cc1` was tested, and the T/C (dose: 100.0 mg/kg/injection, schedule: Q01DX009 (ip), vehicle: saline with Tween-80) was 109 % of control, the T/C (dose: 200.0 mg/kg/injection, schedule: Q01DX009 (ip), vehicle: saline with Tween-80) was 104 % of control and the T/C (dose: 400.0 mg/kg/injection, schedule: Q01DX009 (ip), vehicle: saline with Tween-80) was 105 % of control.
For `CC(=N)/C(C(=O)NC1CCCCC1)=C(/C)O`, the T/C [8] was 101 % of control, the T/C [9] was 104 % of control and the T/C [10] was 103 % of control. For the same compound, the T/C [11] was 109 % of control, the T/C (dose: 400.0 mg/kg/injection, schedule: Q01DX009 (ip), vehicle: saline) was 93 % of control and the T/C [12] was 96 % of control.
In the case of `CSc1ccccc1NC(=O)NCCCl`, the T/C [8] is reported as 100 % of control and the T/C [10] is reported as 98 % of control.
With `Nc1ccn(CC(=O)N2CCC3(CC2)SSC2(CCN(C(=O)Cn4ccc(N)nc4=O)CC2)S3)c(=O)n1` the T/C [9] was 97 % of control, the T/C [11] was 91 % of control and the T/C [12] was 97 % of control.
For `O=NN(CC(F)(F)F)C(=O)NC1CCCCC1` (tested in a mixture with another compound), the T/C (dose: 8.0 mg/kg/injection, schedule: Q01DX001 (ip), vehicle: other) was 100 % of control, the T/C (dose: 16.0 mg/kg/injection, schedule: Q01DX001 (ip), vehicle: other) was 95 % of control and the T/C (dose: 31.0 mg/kg/injection, schedule: Q01DX001 (ip), vehicle: other) was 94 % of control. The T/C (dose: 62.0 mg/kg/injection, schedule: Q01DX001 (ip), vehicle: other) was 97 % of control, the T/C (dose: 125.0 mg/kg/injection, schedule: Q01DX001 (ip), vehicle: other) was 101 % of control and the T/C (dose: 250.0 mg/kg/injection, schedule: Q01DX001 (ip), vehicle: other) was 94 % of control. For the same compound, the T/C (dose: 375.0 mg/kg/injection, schedule: Q01DX001 (ip), vehicle: other) was 101 % of control.
With `Nc1ccc(SCC(=O)O)cc1` the T/C (dose: 75.0 mg/kg/injection, schedule: Q01DX001 (ip), vehicle: saline) was 94 % of control, the T/C (dose: 150.0 mg/kg/injection, schedule: Q01DX001 (ip), vehicle: saline) was 100 % of control and the T/C (dose: 300.0 mg/kg/injection, schedule: Q01DX001 (ip), vehicle: saline) was 92 % of control.
For `CN(C)C(=S)OCC(C)(C)C`, the T/C [4] was 113 % of control, the T/C [5] was 100 % of control and the T/C [6] was 97 % of control.
With `CCOC(=O)c1ccc2c3c(ccc(C(=O)OCC)c13)C=C2` the T/C [1] was 88 % of control, the T/C [2] was 96 % of control and the T/C [3] was 100 % of control.
